Active and inactive are the calls of the source. The rule behind the calls is not given here.
Key:
B16-F10 [1] = test: Cytotoxicity against mouse B16-F10 cells assessed as cell survival incubated for 24 hrs by alamarblue staining based analysis; format: functional; settings: B16-F10, 24 h
[2] = Cytotoxicity against NF2-deficient mouse MEF cells assessed as cell survival incubated for 24 hrs by alamarblue staining based analysis; format: toxicity
B16-F10 [3] = test: Cytotoxicity against mouse B16-F10 cells assessed as inhibition of cell growth incubated for 24 hrs by alamarblue staining based assay; format: functional; settings: dose 0.28-55 µM
MEF = test: Cytotoxicity against NF2-deficient mouse MEF cells assessed as reduction in cell viability at 0.2 to 55 uM incubated for 24 hrs by alamarblue staining based analysis; format: toxicity; settings: dose 0.2-55 µM
B16-F10 [4] = test: Cytotoxicity against mouse B16-F10 cells assessed as cell death by measuring increase in red fluorescence at 10 uM by calcein AM/PI staining based confocal laser scanning microscopy analysis; format: functional
B16-F10 [5] = test: Induction of apoptosis in mouse B16-F10 cells assessed as early apoptotic cells at 5 uM measured after 48 hrs by Annexin V-FITC/7-AAD staining based flow cytometric analysis relative to control; format: functional
B16-F10 [6] = test: Induction of apoptosis in mouse B16-F10 cells assessed as late apoptotic cells at 5 uM measured after 48 hrs by Annexin V-FITC/7-AAD staining based flow cytometric analysis relative to control; format: functional
B16-F10 [7] = test: Induction of apoptosis in mouse B16-F10 cells assessed as necrotic cells at 5 uM measured after 48 hrs by Annexin V-FITC/7-AAD staining based flow cytometric analysis relative to control; format: functional
B16-F10 [8] = test: Induction of apoptosis in mouse B16-F10 cells assessed as viable cells at 10 uM measured after 48 hrs by Annexin V-FITC/7-AAD staining based flow cytometric analysis relative to control; format: functional; settings: read-out: Activity
B16-F10 [9] = test: Induction of apoptosis in mouse B16-F10 cells assessed as early apoptotic cells at 10 uM measured after 48 hrs by Annexin V-FITC/7-AAD staining based flow cytometric analysis relative to control; format: functional
B16-F10 [10] = test: Induction of apoptosis in mouse B16-F10 cells assessed as late apoptotic cells at 10 uM measured after 48 hrs by Annexin V-FITC/7-AAD staining based flow cytometric analysis relative to control; format: functional
B16-F10 [11] = test: Induction of apoptosis in mouse B16-F10 cells assessed as necrotic cells at 10 uM measured after 48 hrs by Annexin V-FITC/7-AAD staining based flow cytometric analysis relative to control; format: functional
B16-F10 [12] = test: Induction of apoptosis in mouse B16-F10 cells assessed as viable cells at 15 uM measured after 48 hrs by Annexin V-FITC/7-AAD staining based flow cytometric analysis relative to control; format: functional; settings: read-out: Activity
B16-F10 [13] = test: Induction of apoptosis in mouse B16-F10 cells assessed as early apoptotic cells at 15 uM measured after 48 hrs by Annexin V-FITC/7-AAD staining based flow cytometric analysis relative to control; format: functional
B16-F10 [14] = test: Induction of apoptosis in mouse B16-F10 cells assessed as late apoptotic cells at 15 uM measured after 48 hrs by Annexin V-FITC/7-AAD staining based flow cytometric analysis relative to control; format: functional
B16-F10 [15] = test: Induction of apoptosis in mouse B16-F10 cells assessed as necrotic cells at 15 uM measured after 48 hrs by Annexin V-FITC/7-AAD staining based flow cytometric analysis relative to control; format: functional
B16-F10 [16] = test: Induction of apoptosis in mouse B16-F10 cells assessed as early apoptotic cells at 20 uM measured after 48 hrs by Annexin V-FITC/7-AAD staining based flow cytometric analysis relative to control; format: functional
B16-F10 [17] = test: Induction of apoptosis in mouse B16-F10 cells assessed as late apoptotic cells at 20 uM measured after 48 hrs by Annexin V-FITC/7-AAD staining based flow cytometric analysis relative to control; format: functional
B16-F10 [18] = test: Induction of apoptosis in mouse B16-F10 cells assessed as necrotic cells at 20 uM measured after 48 hrs by Annexin V-FITC/7-AAD staining based flow cytometric analysis relative to control; format: functional
4T1 = test: Cytotoxicity against mouse 4T1 cells assessed as cell survival incubated for 24 hrs by alamarblue staining based analysis; format: functional; settings: 4T1, 24 h
CT26 = test: Cytotoxicity against mouse CT26 cells assessed as cell survival incubated for 24 hrs by alamarblue staining based analysis; format: functional; settings: CT26, 24 h
[19] = Toxicity in C57BL/6 mouse assessed as body weight gain at 37 mg/kg, ip measured for 22 days; format: organism-based; settings: in vivo, 528 h, time 22 day
[20] = Toxicity in C57BL/6 mouse assessed as change in body temperature at 37 mg/kg, ip measured for 22 days; format: organism-based; settings: in vivo, 528 h, time 22 day
[21] = Toxicity in C57BL/6 mouse assessed as effect on AST level at 37 mg/kg, ip measured for 22 days; format: organism-based; settings: in vivo, 528 h, time 22 day
[22] = Toxicity in C57BL/6 mouse assessed as effect on ALT level at 37 mg/kg, ip measured for 22 days; format: organism-based; settings: in vivo, 528 h, time 22 day
[23] = Toxicity in C57BL/6 mouse assessed as effect on urea level at 37 mg/kg, ip measured for 22 days; format: organism-based; settings: in vivo, 528 h, time 22 day
B16-F10 [24] = test: Antitumor activity against metastatic mouse B16-F10 cells implanted in C57BL/6 mouse assessed as number of lung metastases at 9 to 9.5 mg/kg, ip administered for 12 days by histological analysis (reference value: 150 +/- 7); format: functional; settings: dose 9-9.5 mg/kg, time 12 day
B16-F10 [25] = test: Antitumor activity against metastatic mouse B16-F10 cells implanted in C57BL/6 mouse assessed as number of lung metastases at 9 to 9.5 mg/kg, ip administered for 19 days by histological analysis (reference value: 190 +/- 9); format: functional; settings: dose 9-9.5 mg/kg, time 19 day
B16-F10 [26] = test: Antitumor activity against metastatic mouse B16-F10 cells implanted in C57BL/6 mouse assessed as number of lung metastases at 4.6 to 42 mg/kg, ip administered every 3rd day for 22 days measured on day 23 by histological analysis (reference value: 223 +/- 12); format: functional; settings: dose 4.6-42 mg/kg, time 23 day
[27] = Toxicity in C57BL/6 mouse implanted with mouse B16-F10 cells assessed as liver damage at 4.6 to 42 mg/kg, ip by H and E staining based analysis; format: organism-based; settings: in vivo, dose 4.6-42 mg/kg
[28] = Toxicity in C57BL/6 mouse implanted with mouse B16-F10 cells assessed as kidney damage at 4.6 to 42 mg/kg, ip by H and E staining based analysis; format: organism-based; settings: in vivo, dose 4.6-42 mg/kg
[29] = Toxicity in C57BL/6 mouse implanted with mouse B16-F10 cells assessed as heart damage at 4.6 to 42 mg/kg, ip by H and E staining based analysis; format: organism-based; settings: in vivo, dose 4.6-42 mg/kg
[30] = Toxicity in C57BL/6 mouse implanted with mouse B16-F10 cells assessed as liver damage at 9 to 9.5 mg/kg, ip by H and E staining based analysis; format: organism-based; settings: in vivo, dose 9-9.5 mg/kg
[31] = Toxicity in C57BL/6 mouse implanted with mouse B16-F10 cells assessed as spleen damage at 9 to 9.5 mg/kg, ip by H and E staining based analysis; format: organism-based; settings: in vivo, dose 9-9.5 mg/kg
[32] = Toxicity in C57BL/6 mouse implanted with mouse B16-F10 cells assessed as heart damage at 9 to 9.5 mg/kg, ip by H and E staining based analysis; format: organism-based; settings: in vivo, dose 9-9.5 mg/kg

SMILES	IC50 (B16-F10 [1]) [µM]	IC50 at 24 h [2] [µM]	Activity (B16-F10 [3])	Activity (MEF)	Activity (B16-F10 [4])	Activity (B16-F10 [5]) [%]	Activity (B16-F10 [6]) [%]	Activity (B16-F10 [7]) [%]	viability at 10 µM (B16-F10 [8]) [%]	Activity (B16-F10 [9]) [%]	Activity (B16-F10 [10]) [%]	Activity (B16-F10 [11]) [%]	viability at 15 µM (B16-F10 [12]) [%]	Activity (B16-F10 [13]) [%]	Activity (B16-F10 [14]) [%]	Activity (B16-F10 [15]) [%]	Activity (B16-F10 [16]) [%]	Activity (B16-F10 [17]) [%]	Activity (B16-F10 [18]) [%]	IC50 (4T1) [µM]	further results
CCOC(=O)c1c(NC(=C\C(=O)c2ccc(OC)cc2)/C([O-])=C(\C#N)C(N)=O)sc2c1CCCC2.[K+]	2.41	> 100	Dose-Dependent Effect	Non-Toxic	Active	2.2	43.5	48.5	0.5	0.3	85.3	14	0.3	0.5	94.3	4.9	0.8	95.1	3.8	3.8	IC50 (CT26): 4.3 µM; Activity [19]: Toxic; Activity [20]: Non-Toxic; Activity [21]: Non-Toxic; Activity [22]: Non-Toxic; Activity [23]: Non-Toxic; Activity (B16-F10 [24]): 161; Activity (B16-F10 [25]): 54; Activity (B16-F10 [26]): ~10; Activity [27]: Non-Toxic; Activity [28]: Non-Toxic; Activity [29]: Non-Toxic; Activity [30]: Non-Toxic; Activity [31]: Non-Toxic; Activity [32]: Non-Toxic
COc1ccc(C(=O)/C=C2\C(=O)C(C#N)=C3NC(=O)c4c(sc5c4CCCCC5)N32)cc1	6.2	> 100	Dose-Dependent Effect	Non-Toxic	Active	2.8	30.8	3.2	0.3	0.5	88.6	10.7	0.4	0.8	91.7	7.2	0.3	92	7.4	8.8	IC50 (CT26): 9.3 µM; Activity [19]: Toxic; Activity [20]: Non-Toxic; Activity [21]: Non-Toxic; Activity [22]: Non-Toxic; Activity [23]: Non-Toxic; Activity (B16-F10 [24]): 143; Activity (B16-F10 [25]): 87; Activity (B16-F10 [26]): 55; Activity [27]: Non-Toxic; Activity [28]: Non-Toxic; Activity [29]: Non-Toxic; Activity [30]: Non-Toxic; Activity [31]: Non-Toxic; Activity [32]: Non-Toxic
CCOC(=O)c1c(N2C(N)=C(C#N)C(=O)/C2=C\C(=O)c2ccc(C)cc2)sc2c1CCCCC2	4.8	> 100	Dose-Dependent Effect	Non-Toxic	Active	1.4	30.4	32.8	1.1	1.5	75.6	21.8	0.1	0.5	96.1	3.3	1	96.5	2.3	6.5	IC50 (CT26): 7.4 µM; Activity [19]: Toxic; Activity [20]: Non-Toxic; Activity [21]: Non-Toxic; Activity [22]: Non-Toxic; Activity [23]: Non-Toxic; Activity (B16-F10 [24]): 145; Activity (B16-F10 [25]): 67; Activity (B16-F10 [26]): 29; Activity [27]: Non-Toxic; Activity [28]: Non-Toxic; Activity [29]: Non-Toxic; Activity [30]: Non-Toxic; Activity [31]: Non-Toxic; Activity [32]: Non-Toxic
